Results reported in ChEMBL document CHEMBL1201862, “PubChem BioAssay data set” (2004).
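Growth conditions: 96-well plates. Treatment: test compound, 48 hours, 5 concentrations. Analysis: linear interpolation between bracketing concentrations; unreached endpoints set to highest concentration. Here, GI50 denotes the concentration required for 50% inhibition of growth.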 The source made the active and inactive calls. No stated cut-off is given here; in the data, active = GI50 up to about 1.1 µM and inactive = higher.

Legend:
Assay in all cases: NCI-60 cell line screen, 48 h
RPMI-8226 = system: RPMI-8226
MOLT-4 = system: MOLT-4
PC-3 = system: PC-3
BT-549 = system: BT-549
NCI-H460 = system: NCI-H460
CCRF-CEM = system: CCRF-CEM
NCI/ADR-RES = system: NCI/ADR-RES
TK-10 = system: TK-10
HCT-15 = system: HCT-15
OVCAR-3 = system: OVCAR-3
CAKI-1 = system: CAKI-1
KM12 = system: KM12
DU-145 = system: DU-145
Hs-578T = system: Hs-578T
NCI-H522 = system: NCI-H522
HT-29 = system: HT-29
UO-31 = system: UO-31
SK-MEL-28 = system: SK-MEL-28
SK-MEL-5 = system: SK-MEL-5
SR = system: SR

Row | SMILES | GI50 (RPMI-8226) | GI50 (MOLT-4) | GI50 (PC-3) | GI50 (BT-549) | GI50 (NCI-H460) | GI50 (CCRF-CEM) | GI50 (NCI/ADR-RES) | GI50 (TK-10) | GI50 (HCT-15) | GI50 (OVCAR-3) | GI50 (CAKI-1) | GI50 (KM12) | GI50 (DU-145) | GI50 (Hs-578T) | GI50 (NCI-H522) | GI50 (HT-29) | GI50 (UO-31) | GI50 (SK-MEL-28) | GI50 (SK-MEL-5) | GI50 (SR)
1 | N#CC(=N)c1ncn(-c2ccc(N)cc2)c1N | > 100 µM (inactive) | > 100 µM (inactive) | > 100 µM (inactive) | > 100 µM (inactive) | > 100 µM (inactive) | > 100 µM (inactive) | > 100 µM (inactive) | > 100 µM (inactive) | > 100 µM | > 100 µM (inactive) | > 100 µM (inactive) | > 100 µM (inactive) | > 100 µM (inactive) | > 100 µM (inactive) | > 100 µM (inactive) | > 100 µM (inactive) | > 100 µM (inactive) | > 100 µM (inactive) | > 100 µM (inactive) | > 100 µM (inactive)
2 | CCOC(=O)c1c(N2CCOCC2)[nH]c(=O)c(C(c2ccco2)c2c(O)c(C(=O)OCC)c(N3CCOCC3)[nH]c2=O)c1O | > 100 µM (inactive) | > 100 µM (inactive) | > 100 µM (inactive) | > 100 µM (inactive) | > 100 µM (inactive) | > 100 µM (inactive) | > 100 µM (inactive) | > 100 µM (inactive) | > 100 µM | > 100 µM (inactive) | > 100 µM (inactive) | > 100 µM (inactive) | > 100 µM (inactive) | > 100 µM (inactive) | > 100 µM (inactive) | > 100 µM (inactive) | > 100 µM (inactive) | > 100 µM (inactive) | > 100 µM (inactive) | > 100 µM (inactive)
3 | COC(=O)[C@]1(C)CCC[C@]2(C)[C@H]3CC[C@]4(C(C)C)OO[C@@H](O4)[C@]34O[C@@H]4C[C@H]21 | 3.44 µM (inactive) | 1.21 µM (inactive) | 1.48 µM (inactive) | 4.81 µM (inactive) | 1.88 µM (inactive) | 0.5 µM (active) | 3.57 µM (inactive) | 4.88 µM (inactive) | 2.16 µM | 1.8 µM (inactive) | 0.384 µM (active) | 2.86 µM (inactive) | 1.64 µM (inactive) | 2.63 µM (inactive) | 1.43 µM (inactive) | 1.82 µM (inactive) | 0.641 µM (active) | 16.3 µM (inactive) | 1.69 µM (inactive) | 0.238 µM (active)
4 | Cc1cc(C)c([S@@](=O)O[C@@H]2[C@H]3OC(C)(C)O[C@H]3O[C@@H]2[C@H]2COC(C)(C)O2)c(C)c1 | 17.1 µM (inactive) | 17 µM (inactive) | 19.9 µM (inactive) | 15.1 µM (inactive) | 24.8 µM (inactive) | 25.2 µM (inactive) | 22 µM (inactive) | 25.5 µM (inactive) | 42.9 µM | 19.7 µM (inactive) | 2.16 µM (inactive) | 18.2 µM (inactive) | 29.1 µM (inactive) | 37.2 µM (inactive) | 8.65 µM (inactive) | 29.7 µM (inactive) | 17.6 µM (inactive) | 29.1 µM (inactive) | 31.2 µM (inactive) | 15.6 µM (inactive)
5 | O=C1CSC(c2cccc([N+](=O)[O-])c2)N1c1ccc(-c2ccc(-n3c(-c4ccccc4)nc4ccccc4c3=O)cc2)cc1 (stereo not given) | 30 µM (inactive) | 17.2 µM (inactive) | 21.9 µM (inactive) | 23.3 µM (inactive) | 25.5 µM (inactive) | 23 µM (inactive) | 37.2 µM (inactive) | > 100 µM (inactive) | 32.1 µM | 23.3 µM (inactive) | > 100 µM (inactive) | 21.8 µM (inactive) | 38.4 µM (inactive) | 49.1 µM (inactive) | 25.6 µM (inactive) | 33.4 µM (inactive) | 18.5 µM (inactive) | 43.6 µM (inactive) | 29.1 µM (inactive) | 19.7 µM (inactive)
6 | N#Cc1c2c(c(Nc3ccc(Cl)cc3)n3c1nc1ccccc13)CCCC2 | 4.75 µM (inactive) | 3.18 µM (inactive) | 7.06 µM (inactive) | > 70.1 µM (inactive) | 14.8 µM (inactive) | 34.6 µM (inactive) | 44.1 µM (inactive) | 53.1 µM (inactive) | 25.9 µM | 13.4 µM (inactive) | 36.5 µM (inactive) | 20.3 µM (inactive) | > 69.2 µM (inactive) | 26.2 µM (inactive) | 17.5 µM (inactive) | 18.5 µM (inactive) | > 51.2 µM (inactive) | > 76 µM (inactive) | 20.5 µM (inactive) | 17 µM (inactive)
7 | C=CCNC1=C2C[C@@H](C)C[C@H](OC)[C@H](O)[C@@H](C)/C=C(\C)[C@H](OC(N)=O)[C@@H](OC)/C=C\C=C(/C)C(=O)NC(=CC1=O)C2=O [TANESPIMYCIN] | 0.0731 µM (active) | 0.527 µM (active) | 0.047 µM (active) | 5.73 µM (inactive) | 0.0136 µM (active) | 0.493 µM (active) | 5.69 µM (inactive) | 0.0881 µM (active) | 0.204 µM | 0.115 µM (active) | 1.29 µM (inactive) | 0.0165 µM (active) | 0.0569 µM (active) | 0.575 µM (active) | 0.0431 µM (active) | 0.0113 µM (active) | 0.428 µM (active) | 0.396 µM (active) | 0.0259 µM (active) | 0.0158 µM (active)
8 | Cc1c(-c2ccccc2)n(C)c2cn[nH]c(=O)c12 | 38.1 µM (inactive) | 32.7 µM (inactive) | 19.7 µM (inactive) | 32.3 µM (inactive) | 63.8 µM (inactive) | 40.2 µM (inactive) | 26.7 µM (inactive) | 41.4 µM (inactive) | 36.6 µM | 19.7 µM (inactive) | 49.5 µM (inactive) | 37.5 µM (inactive) | 67.8 µM (inactive) | 41.2 µM (inactive) | > 100 µM (inactive) | 26.1 µM (inactive) | 44.1 µM (inactive) | 47.3 µM (inactive) | 17.3 µM (inactive) | 27 µM (inactive)
9 | COc1cc(/C=N/n2c(-c3ccccc3)nn(C(C)=O)c2=O)cc(OC)c1OC | 1.49 µM (inactive) | 0.714 µM (active) | 2.07 µM (inactive) | 8.55 µM (inactive) | 0.619 µM (active) | 2.23 µM (inactive) | 1.25 µM (inactive) | 3.85 µM (inactive) | 0.635 µM | 0.69 µM (active) | 1.77 µM (inactive) | 0.521 µM (active) | 4.46 µM (inactive) | 3.13 µM (inactive) | 0.818 µM (active) | 0.405 µM (active) | 1.57 µM (inactive) | 7.13 µM (inactive) | 0.675 µM (active) | 0.0875 µM (active)
10 | Cc1ccc(-c2nc(-c3nccc4ccccc34)oc2-c2ccccc2)cc1 | 38.4 µM (inactive) | 25.2 µM (inactive) | > 100 µM (inactive) | > 100 µM (inactive) | 26.7 µM (inactive) | 84.1 µM (inactive) | 98.2 µM (inactive) | 66.8 µM (inactive) | 22.9 µM | 56.1 µM (inactive) | 43.3 µM (inactive) | 43.1 µM (inactive) | 63.2 µM (inactive) | 75 µM (inactive) | 43 µM (inactive) | 5.64 µM (inactive) | 95.9 µM (inactive) | > 100 µM (inactive) | 28.1 µM (inactive) | 25.8 µM (inactive)
